Test: mn = molality of the nth substance listed, in mol/kg
Details: 298.15 K, 101 kPa, Liquid, rubidium clock sound velocity meter

Nc1ncnc2c1ncn2[C@@H]1O[C@H](CO)[C@@H](O)[C@H]1O [β-adenosine] + O
Details | speed of sound [m/s]
m1 = 0.01701 | 1497.8
m1 = 0.01736 | 1497.8
m1 = 0.01799 | 1497.8
m1 = 0.01851 | 1497.9
m1 = 0.01911 | 1497.9
m1 = 0.0195 | 1497.9
m1 = 0.02001 | 1498
m1 = 0.02054 | 1498

From the NIST ThermoML archive (doi:10.1021/je101264r)
